Patent publication US20210283261A1, “Compositions and Methods for Treating ALK-Mediated Cancer” (ICAHN SCHOOL OF MEDICINE AT MOUNT SINAI, priority 2017, published 2021)

How the values were obtained:
Format in all cases: cell-based
NCI-H3122 cells = assay: Cell viability assay in NCI-H3122 cells; conditions: 3 days
Protocol: SU-DHL-1, NCI-H3122 and NCI-H2228 cells were cultured in RPMI-1640 medium supplemented with 10% fetal bovine serum, 50 μg/mL penicillin and streptomycin. Cells were cultured in a 37° C. incubator with 5% CO2.
(§1) SU-DHL-1 and NCI-3122 cells were treated with DMSO or indicated serial dilutions of compounds for 3 days. Data were analyzed using the GraphPad Prism.

SU-DHL-1 cells = assay: Cell viability assay in SU-DHL-1 cells; conditions: 3 days
Protocol: (§2) SU-DHL-1 cells were seeded in 96-well plates at a density of 1×10^4 cells per well, in triplicate. Treated cells with DMSO or indicated serial dilutions of compounds for 2.5 days. Cell growth/survival was measured by using the CellTiter-Glo luminescent cell viability assay following the manufacturer's instructions (Promega) or CCK8 cell viability assay (Sigma). Data was analyzed by using the GraphPad Prism software, Error bars represent ±SD for triplicate experiments.
as §2, with “assay.” for “assay following the manufacturer's instructions (Promega) or CCK8 cell viability assay (Sigma).”, “experiments (left panel).” for “experiments.”
SU-DHL-1 cells were seeded in 96-well plates at a density of 5000 cells per well, in triplicate. The cells were treated with DMSO or indicated serial dilutions of compounds for 3 days. Cell growth was measured using the CellTiter-Glo luminescent cell viability assay. Data were analyzed using the GraphPad Prism.
as §1

ALK fusion protein = molecular target: T1, ALK fusion protein (Homo sapiens, UniProt Q9UM73); assay: Western blot of ALK fusion protein levels in NCI-H3122 cells; conditions: for effect on ALK fusion protein levels, concentration dependence: NCI-H3122 cells, 0, 50, 100, 200, 400 and 800 nM; for effect on ALK fusion protein levels, concentration dependence / significantly reduced ALK fusion protein levels (degraders vs negative controls): 16 h; for Dmax at 0.5 µM: NCI-H3122, NCI-H3122 cells, read-out: ALK fusion protein degradation, NCI-H3122 (500 nM)
T1 construct: endogenous in cells; host or cells: NCI-H3122; the other entry of the earlier key: EML4 (Q9HC35, Echinoderm microtubule-associated protein-like 4)

NPM-ALK fusion protein = molecular target: T2, NPM-ALK fusion protein (Homo sapiens, UniProt Q9UM73); assay: Western blot of NPM-ALK fusion protein levels in SU-DHL-1 cells; conditions: for effect on ALK fusion protein levels, concentration dependence: SU-DHL-1 cells, 0, 10, 20, 40, 80 and 160 nM; for effect on ALK fusion protein levels, concentration dependence / significantly reduced ALK fusion protein levels (degraders vs negative controls): 16 h; for rescue of induced ALK fusion protein degradation by MG-132 and MLN4924 / significantly reduced ALK fusion protein levels (degraders vs negative controls): SU-DHL-1 cells; for rescue of induced ALK fusion protein degradation by MG-132 and MLN4924: 2 h pre-treatment, then 100 nM compound for 6 h
T2 construct: endogenous in cells; host or cells: SU-DHL-1; the other entry of the earlier key: NPM1 (P06748, Nucleophosmin)
Summary of the method: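 SU-DHL-1 cells treated with DMSO or compound serial dilutions for 16 h, or at 30 nM or 100 nM for varying times. NPM-ALK and phospho-ALK (Tyr1507) levels measured by Western blot and normalized to GAPDH.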

ALK = assay: Characterization of ALK degraders in ALCL and NSCLC cells (summary); conditions: summary statement
Text: Specific exemplary ALK degraders/disruptors were characterized in various different anaplastic large cell lymphoma (ALCL) cells and non-small cell lung cancer (NSCLC) cells (Examples 4-19, FIGS. 1-18). […] This efficacy in suppressing ALK expression and ALK activity correlated with efficacy in inhibiting cancer cell proliferation.

T2 sequence (Q9UM73 with tags, fused parts or gaps): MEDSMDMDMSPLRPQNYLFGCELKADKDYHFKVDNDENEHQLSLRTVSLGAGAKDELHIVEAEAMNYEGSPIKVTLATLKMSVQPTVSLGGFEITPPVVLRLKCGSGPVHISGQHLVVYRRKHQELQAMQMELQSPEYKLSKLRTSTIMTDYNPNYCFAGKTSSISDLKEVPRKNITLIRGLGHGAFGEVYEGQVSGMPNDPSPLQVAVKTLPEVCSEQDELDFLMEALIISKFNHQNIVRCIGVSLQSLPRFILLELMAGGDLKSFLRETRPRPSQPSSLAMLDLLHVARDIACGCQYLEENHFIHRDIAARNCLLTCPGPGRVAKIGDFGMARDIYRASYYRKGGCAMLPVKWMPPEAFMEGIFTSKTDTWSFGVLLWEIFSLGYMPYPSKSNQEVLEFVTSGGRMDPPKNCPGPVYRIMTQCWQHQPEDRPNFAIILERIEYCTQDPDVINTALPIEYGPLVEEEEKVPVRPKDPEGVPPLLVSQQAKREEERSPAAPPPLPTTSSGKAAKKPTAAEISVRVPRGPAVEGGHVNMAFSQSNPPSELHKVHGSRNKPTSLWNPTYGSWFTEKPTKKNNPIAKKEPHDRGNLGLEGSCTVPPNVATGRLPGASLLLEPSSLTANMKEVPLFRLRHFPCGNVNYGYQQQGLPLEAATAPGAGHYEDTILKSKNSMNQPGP
T1 sequence (Q9UM73 with tags, fused parts or gaps): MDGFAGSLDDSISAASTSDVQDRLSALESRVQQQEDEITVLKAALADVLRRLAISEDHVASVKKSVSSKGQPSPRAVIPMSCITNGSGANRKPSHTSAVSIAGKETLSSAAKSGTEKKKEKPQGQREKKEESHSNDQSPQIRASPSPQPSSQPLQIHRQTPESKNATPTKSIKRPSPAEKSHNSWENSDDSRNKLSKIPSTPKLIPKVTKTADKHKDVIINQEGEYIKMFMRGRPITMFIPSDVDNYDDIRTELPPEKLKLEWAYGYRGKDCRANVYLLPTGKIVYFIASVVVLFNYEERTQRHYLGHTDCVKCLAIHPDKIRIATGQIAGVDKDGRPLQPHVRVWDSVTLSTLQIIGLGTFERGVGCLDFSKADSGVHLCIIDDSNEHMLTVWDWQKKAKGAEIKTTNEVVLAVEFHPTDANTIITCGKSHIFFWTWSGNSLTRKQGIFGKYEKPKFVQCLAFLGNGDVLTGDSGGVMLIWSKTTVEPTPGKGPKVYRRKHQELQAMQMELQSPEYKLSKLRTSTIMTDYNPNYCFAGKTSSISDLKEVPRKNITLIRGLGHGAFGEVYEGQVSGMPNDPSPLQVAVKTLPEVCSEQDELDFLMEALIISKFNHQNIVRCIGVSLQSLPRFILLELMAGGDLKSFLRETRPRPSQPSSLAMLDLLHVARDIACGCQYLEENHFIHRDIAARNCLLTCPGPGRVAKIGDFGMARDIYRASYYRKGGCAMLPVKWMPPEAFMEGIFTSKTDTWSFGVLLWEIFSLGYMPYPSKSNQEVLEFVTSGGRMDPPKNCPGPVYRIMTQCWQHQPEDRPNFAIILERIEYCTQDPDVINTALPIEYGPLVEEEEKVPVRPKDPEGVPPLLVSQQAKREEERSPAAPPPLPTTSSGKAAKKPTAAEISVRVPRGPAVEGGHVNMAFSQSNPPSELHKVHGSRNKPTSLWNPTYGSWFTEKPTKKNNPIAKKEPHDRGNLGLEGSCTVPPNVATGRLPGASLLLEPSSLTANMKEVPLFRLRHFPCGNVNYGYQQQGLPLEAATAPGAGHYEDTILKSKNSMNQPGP

| SMILES | effect on ALK fusion protein levels, concentration dependence (ALK fusion protein) | ALK fusion protein degradation, NCI-H3122 (500 nM) (ALK fusion protein; NCI-H3122 cells, 500 nM, Western blot) | significantly reduced ALK fusion protein levels (degraders vs negative controls) (ALK fusion protein; NCI-H3122 cells) | effect on ALK fusion protein levels, concentration dependence (NPM-ALK fusion protein) | rescue of induced ALK fusion protein degradation by MG-132 and MLN4924 (NPM-ALK fusion protein) | significantly reduced ALK fusion protein levels (degraders vs negative controls) (NPM-ALK fusion protein) | Dmax at 0.5 µM (ALK fusion protein; 500 nM, Western blot) [%] | inhibition of cell viability (NCI-H3122 cells) | inhibition of cell viability (SU-DHL-1 cells) | suppressing both ALK expression and ALK activity (ALK) |
| --- | --- | --- | --- | --- | --- | --- | --- | --- | --- | --- |
| Cc1cc(Nc2ncc(Cl)c(Nc3ccccc3S(=O)(=O)C(C)C)n2)c(OC(C)C)cc1C1CCN(C(=O)COCCOCC(=O)N[C@H](C(=O)N2C[C@H](O)C[C@H]2C(=O)NCc2ccc(-c3scnc3C)cc2)C(C)(C)C)CC1 [CZ47-15, (2S,4R)-1-((S)-2-(2-(2-(2-(4-(4-((5-Chloro-4-((2-(isopropylsulfonyl)phenyl)amino)pyrimidin-2-yl)amino)-5-isopropoxy-2-methylphenyl)piperidin-1-yl)-2-oxoethoxy)ethoxy)acetamido)-3,3-dimethylbutanoyl)-4-hydroxy-N-(4-(4-methylthiazol-5-yl)benzyl)pyrrolidine-2-carboxamide] | concentration-dependently reduced | ++ (Protein degradation >80%) | significantly reduced | concentration-dependently reduced | significantly rescued | significantly reduced | – | significantly inhibited | significantly inhibited | especially effective |
| Cc1cc(Nc2ncc(Cl)c(Nc3ccccc3S(=O)(=O)C(C)C)n2)c(OC(C)C)cc1C1CCN(C(=O)CCCC(=O)N[C@H](C(=O)N2C[C@H](O)C[C@H]2C(=O)NCc2ccc(-c3scnc3C)cc2)C(C)(C)C)CC1 [CZ47-23, (2S,4R)-1-((S)-2-(5-(4-(4-((5-Chloro-4-((2-(isopropylsulfonyl)phenyl)amino)pyrimidin-2-yl)amino)-5-isopropoxy-2-methylphenyl)piperidin-1-yl)-5-oxopentanamido)-3,3-dimethylbutanoyl)-4-hydroxy-N-(4-(4-methylthiazol-5-yl)benzyl)pyrrolidine-2-carboxamide] | concentration-dependently reduced | – | significantly reduced | concentration-dependently reduced | significantly rescued | significantly reduced | > 80 | significantly inhibited | significantly inhibited | especially effective |
| Cc1cc(Nc2ncc(Cl)c(Nc3ccccc3S(=O)(=O)C(C)C)n2)c(OC(C)C)cc1C1CCN(C(=O)CCCCC(=O)N[C@H](C(=O)N2C[C@H](O)C[C@H]2C(=O)NCc2ccc(-c3scnc3C)cc2)C(C)(C)C)CC1 [CZ47-24, (2S,4R)-1-((S)-2-(6-(4-(4-((5-Chloro-4-((2-(isopropylsulfonyl)phenyl)amino)pyrimidin-2-yl)amino)-5-isopropoxy-2-methylphenyl)piperidin-1-yl)-6-oxohexanamido)-3,3-dimethylbutanoyl)-4-hydroxy-N-(4-(4-methylthiazol-5-yl)benzyl)pyrrolidine-2-carboxamide] | concentration-dependently reduced | – | significantly reduced | concentration-dependently reduced | significantly rescued | significantly reduced | > 80 | significantly inhibited | significantly inhibited | especially effective |

Now from value to compound, other results behind:

| effect on ALK fusion protein levels, concentration dependence (ALK fusion protein) | ALK fusion protein degradation, NCI-H3122 (500 nM) (ALK fusion protein; NCI-H3122 cells, 500 nM, Western blot) | significantly reduced ALK fusion protein levels (degraders vs negative controls) (ALK fusion protein; NCI-H3122 cells) | effect on ALK fusion protein levels, concentration dependence (NPM-ALK fusion protein) | rescue of induced ALK fusion protein degradation by MG-132 and MLN4924 (NPM-ALK fusion protein) | significantly reduced ALK fusion protein levels (degraders vs negative controls) (NPM-ALK fusion protein) | Dmax at 0.5 µM (ALK fusion protein; 500 nM, Western blot) [%] | SMILES | inhibition of cell viability (NCI-H3122 cells) | inhibition of cell viability (SU-DHL-1 cells) | suppressing both ALK expression and ALK activity (ALK) |
| --- | --- | --- | --- | --- | --- | --- | --- | --- | --- | --- |
| concentration-dependently reduced | – | – | concentration-dependently reduced | – | – | > 80 | Cc1cc(Nc2ncc(Cl)c(Nc3ccccc3S(=O)(=O)C(C)C)n2)c(OC(C)C)cc1C1CCN(C(=O)COCCOCC(=O)N[C@H](C(=O)N2C[C@H](O)C[C@H]2C(=O)N[C@@H](C)c2ccc(-c3scnc3C)cc2)C(C)(C)C)CC1 [HC58-98, (2S,4R)-1-((S)-2-(2-(2-(2-(4-(4-((5-Chloro-4-((2-(isopropylsulfonyl)phenyl)amino)pyrimidin-2-yl)amino)-5-isopropoxy-2-methylphenyl)piperidin-1-yl)-2-oxoethoxy)ethoxy)acetamido)-3,3-dimethylbutanoyl)-4-hydroxy-N—((S)-1-(4-(4-methylthiazol-5-yl)phenyl)ethyl)pyrrolidine-2-carboxamide] | significantly inhibited | significantly inhibited | especially effective |
| concentration-dependently reduced | – | – | concentration-dependently reduced | – | – | > 80 | Cc1cc(Nc2ncc(Cl)c(Nc3ccccc3S(=O)(=O)C(C)C)n2)c(OC(C)C)cc1C1CCN(C(=O)CCCC(=O)N[C@H](C(=O)N2C[C@H](O)C[C@H]2C(=O)N[C@@H](C)c2ccc(-c3scnc3C)cc2)C(C)(C)C)CC1 [HC58-99, (2S,4R)-1-((S)-2-(5-(4-(4-((5-Chloro-4-((2-(isopropylsulfonyl)phenyl)amino)pyrimidin-2-yl)amino)-5-isopropoxy-2-methylphenyl)piperidin-1-yl)-5-oxopentanamido)-3,3-dimethylbutanoyl)-4-hydroxy-N—((S)-1-(4-(4-methylthiazol-5-yl)phenyl)ethyl)pyrrolidine-2-carboxamide] | significantly inhibited | significantly inhibited | especially effective |
| concentration-dependently reduced | – | – | concentration-dependently reduced | – | – | > 80 | Cc1cc(Nc2ncc(Cl)c(Nc3ccccc3S(=O)(=O)C(C)C)n2)c(OC(C)C)cc1C1CCN(C(=O)CCCCC(=O)N[C@H](C(=O)N2C[C@H](O)C[C@H]2C(=O)N[C@@H](C)c2ccc(-c3scnc3C)cc2)C(C)(C)C)CC1 [HC58-100] | significantly inhibited | significantly inhibited | especially effective |
